{"source": "patent US5616615A", "about": "“Enaminone esters” (priority 1995, dated 1997)", "note": "“Also recorded” adds a separate entry of the source."}
{"system": "Subcutaneous Pentylenetetrazol seizure", "test": "sc Met subcutaneous pentylenetetrazol (Metrazol) seizure test, mice", "type": "in vivo", "details": "Mus musculus, sc, 0.5 h, 300 mg/kg, 30 min, second trial; read-out: scMet, animals protected/tested (converted)", "units": {"responders at 300 mg/kg": "%"}}
{"smiles": "COC(=O)C1C(=O)C=C(NCc2ccc(Cl)cc2)CC1C", "note": "(stereo not drawn) [Compound 16]", "responders at 300 mg/kg": 0}
{"smiles": "COC(=O)C1C(=O)C=C(NNc2ccccc2)CC1C", "note": "(stereo not drawn) [Compound 25]", "responders at 300 mg/kg": 0}
{"system": "Subcutaneous Pentylenetetrazol seizure", "test": "sc Met subcutaneous pentylenetetrazol (Metrazol) seizure test, mice", "type": "in vivo", "details": "Mus musculus, sc, 0.5 h, 300 mg/kg, 30 min; read-out: scMet, animals protected/tested (converted)", "units": {"responders at 300 mg/kg": "%"}}
{"smiles": "COC(=O)C1C(=O)C=C(NCc2ccc(Cl)cc2)CC1C", "note": "(stereo not drawn) [Compound 16]", "responders at 300 mg/kg": 100}
{"smiles": "COC(=O)C1C(=O)C=C(NNc2ccccc2)CC1C", "note": "(stereo not drawn) [Compound 25]", "responders at 300 mg/kg": 100}
{"system": "Subcutaneous Pentylenetetrazol seizure", "test": "sc Met subcutaneous pentylenetetrazol (Metrazol) seizure test, mice", "type": "in vivo", "details": "Mus musculus, sc, 4 h, 300 mg/kg, 4 h; read-out: scMet, animals protected/tested (converted)", "units": {"responders at 300 mg/kg": "%"}}
{"smiles": "COC(=O)C1C(=O)C=C(NCc2ccc(Cl)cc2)CC1C", "note": "(stereo not drawn) [Compound 16]", "responders at 300 mg/kg": 0}
{"smiles": "COC(=O)C1C(=O)C=C(NNc2ccccc2)CC1C", "note": "(stereo not drawn) [Compound 25]", "responders at 300 mg/kg": 0}
{"system": "Subcutaneous Pentylenetetrazol seizure", "test": "sc Met subcutaneous pentylenetetrazol (Metrazol) seizure test, mice", "type": "in vivo", "details": "Phase I"}
{"smiles": "COC(=O)C1C(=O)C=C(NCc2ccc(Cl)cc2)CC1C", "note": "(stereo not drawn) [Compound 16]", "scMet evaluation": "spurious results"}
{"smiles": "COC(=O)C1C(=O)C=C(NNc2ccccc2)CC1C", "note": "(stereo not drawn) [Compound 25]", "scMet evaluation": "spurious results"}
{"system": "seizures", "test": "Anticonvulsant evaluation (ASP phase I / overall)", "type": "in vivo, mice", "details": "Mus musculus, ip; Phase I; read-out: ASP Classification", "protocol": "(§1) The first phase of the ADD Program involved performing tests on male Carworth Farms #1 mice. […] Three tests were performed:\n(§2) Maximal electroshock seizures are elicited with a 60-cycle alternating current of 50 mA intensity (5-7 times that necessary to elicit minimal electroshock seizures) delivered via corneal electrodes for 0.2 seconds. A drop of 0.9% saline is instilled in the eye prior to application of the electrodes in order to […].\n(§3) The animal is observed for 30 minutes.", "units": {"minimal effective dose": "mg/kg"}}
{"smiles": "COC(=O)C1C(=O)C=C(NCc2ccc(Cl)cc2)CC1C", "note": "(stereo not drawn) [Compound 16]", "minimal effective dose": "> 100"}
{"smiles": "COC(=O)C1C(=O)C=C(NNc2ccccc2)CC1C", "note": "(stereo not drawn) [Compound 25]", "minimal effective dose": "> 100"}
{"system": "seizures", "test": "Anticonvulsant evaluation (ASP phase I / overall)", "type": "in vivo, mice", "details": "mouse, in vivo", "protocol": "as §1, §2, §3"}
{"smiles": "O=C1C=C(NCc2ccccc2)CC(c2ccccc2)C1C(=O)NCc1ccccc1", "note": "(stereo not drawn) [Compound 11]", "anticonvulsant activity": "inactive"}
{"smiles": "COC(=O)C1C(=O)C=C(NCc2ccc(C)cc2)CC1C", "note": "(stereo not drawn) [Compound 17]", "anticonvulsant activity": "inactive"}
{"smiles": "COC(=O)C1C(=O)C=C(NCc2ccc(C(=O)O)cc2)CC1C", "note": "(stereo not drawn) [Compound 18]", "anticonvulsant activity": "inactive"}
{"smiles": "COC(=O)C1C(=O)C=C(Nc2ccccc2)CC1C", "note": "(stereo not drawn) [Compound 24]", "anticonvulsant activity": "activity was lost; also recorded: inactive"}
{"smiles": "COC(=O)C1C(=O)C=C(Nc2cc(C)ccc2OC)CC1C", "note": "(stereo not drawn) [Compound 30]", "anticonvulsant activity": "anticonvulsant activity was observed"}
{"smiles": "COC(=O)C1C(=O)C=C(Nc2ccc(C(=O)O)cc2)CC1C", "note": "(stereo not drawn) [Compound 32]", "anticonvulsant activity": "comparable to inactive 18 in the benzylamine series"}
{"smiles": "COC(=O)C1C(=O)C=C(NN2CCOCC2)CC1C", "note": "(stereo not drawn) [Compound 33]", "phase I evaluations": "neither was active"}
{"smiles": "COC(=O)C1C(=O)C=C(NN2CCOCC2)CC1C", "note": "(stereo not drawn) [Compound 34]", "phase I evaluations": "neither was active"}
{"smiles": "COC(=O)C1C(=O)C=C(Nc2ccc(O)cc2)CC1C", "note": "(stereo not drawn) [Compound 35]", "anticonvulsant activity": "inactive"}
{"system": "seizures", "test": "Anticonvulsant evaluation (ASP phase I / overall)", "type": "in vivo, mice", "details": "substituted benzylamines", "protocol": "as §1, §2, §3"}
{"smiles": "COC(=O)C1C(=O)C=C(NCc2ccc(Cl)cc2)CC1C", "note": "(stereo not drawn) [Compound 16]", "activity compared with 12": "only a slight modification in activity"}
{"smiles": "COC(=O)C1C(=O)C=C(NCc2ccc(C)cc2)CC1C", "note": "(stereo not drawn) [Compound 17]", "activity compared with 12": "only a slight modification in activity"}
{"smiles": "COC(=O)C1C(=O)C=C(NCc2ccc(C(=O)O)cc2)CC1C", "note": "(stereo not drawn) [Compound 18]", "activity compared with 12": "only a slight modification in activity"}
{"smiles": "COC(=O)C1C(=O)C=C(NCc2ccc([N+](=O)[O-])cc2)CC1C", "note": "(stereo not drawn) [Compound 20]", "activity compared with 12": "only a slight modification in activity"}
{"system": "Maximal electroshock seizures", "test": "MES maximal electroshock seizure test, mice ip", "type": "in vivo", "details": "Mus musculus, ip, 0.5 h, 300 mg/kg, 30 min; read-out: MES, animals protected/tested", "protocol": "(§4) Three tests were performed:\n(§5) 1. MES--Electroshock Seizure Test\nas §2", "units": {"responders at 300 mg/kg": "%"}}
{"smiles": "COC(=O)C1C(=O)C=C(NCc2ccc(Cl)cc2)CC1C", "note": "(stereo not drawn) [Compound 16]", "responders at 300 mg/kg": 100}
{"smiles": "COC(=O)C1C(=O)C=C(NNc2ccccc2)CC1C", "note": "(stereo not drawn) [Compound 25]", "responders at 300 mg/kg": 100}
{"system": "Maximal electroshock seizures", "test": "MES maximal electroshock seizure test, mice ip", "type": "in vivo", "details": "Mus musculus, ip, 4 h, 300 mg/kg, 4 h; read-out: MES, animals protected/tested", "protocol": "as §4, §5, §2", "units": {"responders at 300 mg/kg": "%"}}
{"smiles": "COC(=O)C1C(=O)C=C(NCc2ccc(Cl)cc2)CC1C", "note": "(stereo not drawn) [Compound 16]", "responders at 300 mg/kg": 100}
{"smiles": "COC(=O)C1C(=O)C=C(NNc2ccccc2)CC1C", "note": "(stereo not drawn) [Compound 25]", "responders at 300 mg/kg": 0}
